According to ChEMBL document CHEMBL3763135, “Synthesis and evaluation of thiophene-based guanylhydrazones (iminoguanidines) efficient against panel of voriconazole-resistant fungal isolates” (Bioorg Med Chem, 2016):
Converted amounts (≈) assume the structure as drawn. The source made the active and inactive calls. No cut-off for these calls is given here.

Legend:
[1] = Hemolytic effect in sheep RBC assessed as release of hemoglobin at 40 ug/ml after 1 hr; type: ADME, cell-based, Ovis aries; conditions: erythrocyte
[2] = Toxicity against zebrafish embryo assessed as dead embryos at 50 ug/ml measured at 96 hrs post fertilization by inverted microscopic analysis; type: organism-based, Danio rerio; conditions: read-out: Activity
[3] = species on record: Danio rerio; assay: Toxicity against zebrafish embryo assessed as effect on eyes at 2.5 ug/ml measured at 96 hrs post fertilization by inverted microscopic analysis; type: organism-based; conditions: in vivo
[4] = Induction of membrane damage in PC/PS liposome assessed as calcein release at MIC after 30 mins by fluorescence-based liposome leakage assay; type: functional
[5] = Toxicity against zebrafish embryo measured at 96 hrs post fertilization by inverted microscopic analysis; type: organism-based, Danio rerio; conditions: zebrafish embryos
[6] = species on record: Danio rerio; assay: Toxicity against zebrafish embryo assessed as head malformation at 5 ug/ml measured at 96 hrs post fertilization by inverted microscopic analysis; type: organism-based; conditions: in vivo
[7] = species on record: Danio rerio; assay: Toxicity against zebrafish embryo assessed as normal embryos at 5 ug/ml measured at 96 hrs post fertilization by inverted microscopic analysis; type: organism-based; conditions: in vivo
[8] = system: Pichia kudriavzevii; assay: Antifungal activity against Candida krusei ATCC 34135 by broth dilution method; type: functional
[9] = species on record: Danio rerio; assay: Toxicity against zebrafish embryo assessed as effect on heart beat at 5 ug/ml measured at 96 hrs post fertilization by inverted microscopic analysis; type: organism-based; conditions: in vivo
[10] = species on record: Danio rerio; assay: Toxicity against zebrafish embryo assessed as normal embryos at 10 ug/ml measured at 96 hrs post fertilization by inverted microscopic analysis; type: organism-based; conditions: in vivo
[11] = species on record: Danio rerio; assay: Toxicity against zebrafish embryo assessed as teratogenic embryos at 50 ug/ml measured at 96 hrs post fertilization by inverted microscopic analysis; type: organism-based; conditions: in vivo
[12] = species on record: Danio rerio; assay: Toxicity against zebrafish embryo assessed as growth retardation at 5 ug/ml measured at 96 hrs post fertilization by inverted microscopic analysis; type: organism-based; conditions: in vivo
[13] = system: Pichia kudriavzevii; assay: Antibiofilm activity against Pichia kudriavzevii ATCC 34135 assessed as disruption of preformed biofilm after 24 hrs by concanavalin A-FITC-staining based fluorescence microscopic analysis; type: functional
[14] = species on record: Danio rerio; assay: Toxicity against zebrafish embryo assessed as skeletal deformities at 2.5 ug/ml measured at 96 hrs post fertilization by inverted microscopic analysis; type: organism-based; conditions: in vivo
[15] = system: Aspergillus fumigatus; assay: Antifungal activity against Aspergillus fumigatus ATCC 13073 by broth dilution method; type: functional
[16] = system: Candida albicans; assay: Antifungal activity against Candida albicans ATCC 10231 by broth dilution method; type: functional
[17] = species on record: Danio rerio; assay: Toxicity against zebrafish embryo assessed as teratogenic embryos at 10 ug/ml measured at 96 hrs post fertilization by inverted microscopic analysis; type: organism-based; conditions: in vivo
[18] = system: Candida parapsilosis; assay: Antibiofilm activity against Candida parapsilosis C27 assessed as disruption of preformed biofilm after 24 hrs by concanavalin A-FITC-staining based fluorescence microscopic analysis; type: functional
[19] = system: Danio rerio; assay: Toxicity against zebrafish embryo assessed as yolk edema at 2.5 ug/ml measured at 96 hrs post fertilization by inverted microscopic analysis; type: organism-based; conditions: in vivo
[20] = species on record: Danio rerio; assay: Toxicity against zebrafish embryo assessed as skeletal deformities at 5 ug/ml measured at 96 hrs post fertilization by inverted microscopic analysis; type: organism-based; conditions: in vivo
[21] = system: Danio rerio; assay: Toxicity against zebrafish embryo assessed as yolk edema at 5 ug/ml measured at 96 hrs post fertilization by inverted microscopic analysis; type: organism-based; conditions: in vivo
[22] = species on record: Danio rerio; assay: Toxicity against zebrafish embryo assessed as effect on notochord at 5 ug/ml measured at 96 hrs post fertilization by inverted microscopic analysis; type: organism-based; conditions: in vivo
[23] = system: Microsporum canis; assay: Antifungal activity against Microsporum canis DMT2 by broth dilution method; type: functional
[24] = Toxicity against zebrafish embryo assessed as dead embryos at 5 ug/ml measured at 96 hrs post fertilization by inverted microscopic analysis; type: organism-based, Danio rerio; conditions: read-out: Activity
[25] = species on record: Danio rerio; assay: Toxicity against zebrafish embryo assessed as teratogenic embryos at 25 ug/ml measured at 96 hrs post fertilization by inverted microscopic analysis; type: organism-based; conditions: in vivo
[26] = species on record: Danio rerio; assay: Toxicity against zebrafish embryo assessed as teratogenic embryos at 2.5 ug/ml measured at 96 hrs post fertilization by inverted microscopic analysis; type: organism-based; conditions: in vivo
[27] = species on record: Danio rerio; assay: Toxicity against zebrafish embryo assessed as effect on notochord at 2.5 ug/ml measured at 96 hrs post fertilization by inverted microscopic analysis; type: organism-based; conditions: in vivo
[28] = species on record: Danio rerio; assay: Toxicity against zebrafish embryo assessed as effect on tail tip at 5 ug/ml measured at 96 hrs post fertilization by inverted microscopic analysis; type: organism-based; conditions: in vivo
[29] = species on record: Danio rerio; assay: Toxicity against zebrafish embryo assessed as effect on blood circulation at 2.5 ug/ml measured at 96 hrs post fertilization by inverted microscopic analysis; type: organism-based; conditions: in vivo
[30] = system: Candida albicans; assay: Antifungal activity against Candida albicans CA5 assessed as fungal growth at sub-MIC measured after 24 hrs by time-kill dependence-based spectrophotometric analysis relative to DMSO control; type: functional, organism-based
[31] = species on record: Danio rerio; assay: Toxicity against zebrafish embryo assessed as growth retardation at 2.5 ug/ml measured at 96 hrs post fertilization by inverted microscopic analysis; type: organism-based; conditions: in vivo
[32] = species on record: Danio rerio; assay: Toxicity against zebrafish embryo assessed as head malformation at 2.5 ug/ml measured at 96 hrs post fertilization by inverted microscopic analysis; type: organism-based; conditions: in vivo
[33] = species on record: Danio rerio; assay: Toxicity against zebrafish embryo assessed as unhatched embryos at 2.5 ug/ml measured at 96 hrs post fertilization by inverted microscopic analysis; type: organism-based; conditions: in vivo
[34] = system: Danio rerio; assay: Toxicity against zebrafish embryo assessed as pericardial edema at 5 ug/ml measured at 96 hrs post fertilization by inverted microscopic analysis; type: organism-based; conditions: in vivo
[35] = species on record: Danio rerio; assay: Toxicity against zebrafish embryo assessed as effect on tail tip at 2.5 ug/ml measured at 96 hrs post fertilization by inverted microscopic analysis; type: organism-based; conditions: in vivo
[36] = system: Candida albicans; assay: Antifungal activity against Candida albicans CA5 assessed as fungal growth at sub-MIC measured over 12 hrs by time-kill dependence-based spectrophotometric analysis relative to DMSO control; type: functional
[37] = species on record: Danio rerio; assay: Toxicity against zebrafish embryo assessed as normal embryos at 2.5 ug/ml measured at 96 hrs post fertilization by inverted microscopic analysis; type: organism-based; conditions: in vivo
[38] = species on record: Danio rerio; assay: Toxicity against zebrafish embryo assessed as normal embryos at 50 ug/ml measured at 96 hrs post fertilization by inverted microscopic analysis; type: organism-based; conditions: in vivo
[39] = system: Fusarium oxysporum; assay: Antifungal activity against Fusarium oxysporum AB18 by broth dilution method; type: functional
[40] = system: Candida albicans; assay: Antifungal activity against Candida albicans CA5 by broth dilution method; type: functional
[41] = species on record: Danio rerio; assay: Toxicity against zebrafish embryo assessed as unhatched embryos at 5 ug/ml measured at 96 hrs post fertilization by inverted microscopic analysis; type: organism-based; conditions: in vivo
[42] = species on record: Danio rerio; assay: Toxicity against zebrafish embryo assessed as teratogenic embryos at 5 ug/ml measured at 96 hrs post fertilization by inverted microscopic analysis; type: organism-based; conditions: in vivo
[43] = species on record: Danio rerio; assay: Toxicity against zebrafish embryo assessed as effect on otoliths at 2.5 ug/ml measured at 96 hrs post fertilization by inverted microscopic analysis; type: organism-based; conditions: in vivo
[44] = species on record: Danio rerio; assay: Toxicity against zebrafish embryo assessed as effect on otoliths at 5 ug/ml measured at 96 hrs post fertilization by inverted microscopic analysis; type: organism-based; conditions: in vivo
[45] = species on record: Danio rerio; assay: Toxicity against zebrafish embryo assessed as effect on heart beat at 2.5 ug/ml measured at 96 hrs post fertilization by inverted microscopic analysis; type: organism-based; conditions: in vivo
[46] = system: Candida albicans; assay: Antibiofilm activity against Candida albicans assessed as inhibition of Spider medium-induced hyphae formation at sub-MIC after 24 hrs by propidium iodide and FITC-conjugated concanavaline A staining based fluorescence microscopy; type: functional, organism-based
[47] = species on record: Danio rerio; assay: Toxicity against zebrafish embryo assessed as effect on blood circulation at 5 ug/ml measured at 96 hrs post fertilization by inverted microscopic analysis; type: organism-based; conditions: in vivo
[48] = system: Trichophyton mentagrophytes; assay: Antifungal activity against Trichophyton mentagrophytes DMT4 by broth dilution method; type: functional
[49] = species on record: Danio rerio; assay: Toxicity against zebrafish embryo assessed as effect on eyes at 5 ug/ml measured at 96 hrs post fertilization by inverted microscopic analysis; type: organism-based; conditions: in vivo
[50] = species on record: Danio rerio; assay: Toxicity against zebrafish embryo assessed as normal embryos at 25 ug/ml measured at 96 hrs post fertilization by inverted microscopic analysis; type: organism-based; conditions: in vivo
[51] = Toxicity against zebrafish embryo assessed as dead embryos at 10 ug/ml measured at 96 hrs post fertilization by inverted microscopic analysis; type: organism-based, Danio rerio; conditions: read-out: Activity
[52] = Toxicity against zebrafish embryo assessed as dead embryos at 2.5 ug/ml measured at 96 hrs post fertilization by inverted microscopic analysis; type: organism-based, Danio rerio; conditions: read-out: Activity
[53] = system: Danio rerio; assay: Toxicity against zebrafish embryo assessed as pericardial edema at 2.5 ug/ml measured at 96 hrs post fertilization by inverted microscopic analysis; type: organism-based; conditions: in vivo
[54] = system: Candida parapsilosis; assay: Antifungal activity against Candida parapsilosis C27 by broth dilution method; type: functional
[55] = Toxicity against zebrafish embryo assessed as dead embryos at 25 ug/ml measured at 96 hrs post fertilization by inverted microscopic analysis; type: organism-based, Danio rerio; conditions: read-out: Activity
[56] = system: Candida albicans; assay: Antibiofilm activity against Candida albicans ATCC 10231 assessed as disruption of preformed biofilm after 24 hrs by concanavalin A-FITC-staining based fluorescence microscopic analysis; type: functional

NYSTATIN
Activity [1]: 35%

C[C@@H](c1ncncc1F)[C@](O)(Cn1cncn1)c1ccc(F)cc1F [VORICONAZOLE]
mortality at 96 h, 50 ug/ml [2]: 100% | Activity [3]: 100% | Activity [4]: 12% | LC50 at 96 h [5]: 3.1 µg/mL (≈ 8.87 µM) | Activity [6]: 100% | Activity [7]: 0% | MIC [8]: 0.06 µg/mL (≈ 0.172 µM) | Activity [9]: 100% | Activity [10]: 0% | Activity [11]: 0% | Activity [12]: 100% | MBEC [13]: 250 µg/mL | Activity [14]: 94.74% | MIC [15]: 0.06 µg/mL (≈ 0.172 µM) | MIC [16]: 0.5 µg/mL (≈ 1.43 µM) | Activity [17]: 0% | MBEC [18]: inactive | Activity [19]: 0% | Activity [20]: 100% | Activity [21]: 100% | Activity [22]: 0% | MIC [23]: 0.5 µg/mL (≈ 1.43 µM) | mortality at 96 h, 5 ug/ml [24]: 80% | Activity [25]: 0% | Activity [26]: 63.33% | Activity [27]: 0% | Activity [28]: 0% | Activity [29]: 0% | Activity [30]: inactive | Activity [31]: 100% | Activity [32]: 100% | Activity [33]: 0% | Activity [34]: 100% | Activity [35]: 0% | Activity [36]: Active | Activity [37]: 0% | Activity [38]: 0% | MIC [39]: inactive | MIC [40]: inactive | Activity [41]: 0% | Activity [42]: 20% | Activity [43]: 100% | Activity [44]: 100% | Activity [45]: 0% | Activity [46]: Active | Activity [47]: 100% | MIC [48]: 0.25 µg/mL (≈ 0.716 µM) | Activity [49]: 100% | Activity [50]: 0% | mortality at 96 h, 10 ug/ml [51]: 100% | mortality at 96 h, 2.5 ug/ml [52]: 36.7% | Activity [53]: 100% | MIC [54]: inactive | mortality at 96 h, 25 ug/ml [55]: 100% | MBEC [56]: 250 µg/mL
